Source: publication PMC10758951, “mRNA display reveals a class of high-affinity bromodomain-binding motifs that are not found in the human proteome” (The Journal of Biological Chemistry, 2023)

Legend:
[1] = Peptide solubility (as observed on sample preparation); format: physicochemical; settings: dissolved in water or experimental buffer; qualitative statement
Description: The concentrations of the peptides used in this study were determined by measuring absorbance at 205 nm ([21]) and NMR ([22]) quantification using a known concentration of 4,4-dimethyl-4-silapentane-1-sulfonic acid as a reference. Peptides were first dissolved in either water or experimental buffer, and measurements were made on the soluble peptide remaining in solution following removal insoluble peptide via centrifugation.

BRD2–BD2 = molecular target: T1, BRD2–BD2 (Homo sapiens, UniProt P25440); experiment: SPR binding of peptides to BET bromodomains; settings: peptide flowed
T1 construct: human BRD2 (BD1: 65–194; BD2: 347–455); His tag (N); biotinylation (Avi-type acceptor, vector pQE80L-Navi) (N); made in house; host or cells: Escherichia coli
T1 sequence (P25440 347-455): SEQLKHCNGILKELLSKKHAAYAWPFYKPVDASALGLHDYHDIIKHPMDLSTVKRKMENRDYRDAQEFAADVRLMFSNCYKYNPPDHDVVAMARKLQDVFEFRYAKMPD
Text: (§1) The BDs from human BRD2 (BD1: 65–194; BD2: 347–455), BRD3 (BD1: 25–147; BD2: 307–419), and BRD4 (BD1: 42–168; BD2: 348–464) were expressed in Escherichia coli from pQE80L-Navi (Qiagen) as N-terminally His-tagged and biotinylated proteins for SPR. For other experiments, they were expressed from pGEX-6P (Cytiva) as N-terminal glutathione-S-transferase-fusion proteins. Expression and purification, via affinity chromatography and size-exclusion chromatography, of unlabeled and uniformly ^15N-labeled proteins were carried out as described previously ([11]).
(§2) Measurements were conducted on a T200 (Cytiva) and data analyzed using the Biacore Insight Evaluation Software. Experiments were performed at 4 °C in multicycle kinetics mode and fit using the equilibrium steady state affinity model (1:1 Langmuir binding isotherm). For experiments measuring the binding of the 2AcK peptide, biotinylated BET BDs were immobilized on a biotin CAP chip (Cytiva) with a target density of ∼1000 to 2000 RU and peptide was flowed over the chip. A buffer comprising 20 mM Mes (pH 6.5), 150 mM NaCl, 0.05% (v/v) Tween-20 was used as the running buffer. For experiments measuring the binding of 1AcK.4E and 2AcK.4E, C-terminally biotinylated variants of the peptides were immobilized on a CM5 chip (Cytiva), which had been amine-coupled with streptavidin, to a target density of ∼50 to 100 RU and unlabeled BET BDs were flowed over the chip. A buffer comprising 20 mM Hepes (pH 7.5), 150 mM NaCl, and 0.05% (v/v) Tween-20 was used as the running buffer.

BRD3–BD2 = molecular target: T2, BRD3–BD2 (Homo sapiens, UniProt Q15059); experiment: SPR binding of peptides to BET bromodomains; settings: peptide flowed
T2 construct: BRD3 (BD1: 25–147; BD2: 307–419); His tag (N); biotinylation (Avi-type acceptor, vector pQE80L-Navi) (N); made in house; host or cells: Escherichia coli
T2 sequence (Q15059 307-419): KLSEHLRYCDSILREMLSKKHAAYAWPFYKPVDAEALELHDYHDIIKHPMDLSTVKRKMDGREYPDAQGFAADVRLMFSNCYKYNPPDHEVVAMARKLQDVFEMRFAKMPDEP
Text: as §1, §2

BRD4–BD2 = molecular target: T3, BRD4–BD2 (Homo sapiens, UniProt O60885); experiment: SPR binding of peptides to BET bromodomains; settings: SPR 4 °C; biotinylated BD immobilized on biotin CAP chip, peptide flowed; 20 mM Mes pH 6.5, 150 mM NaCl, 0.05% Tween-20; steady state 1:1 fit; geometric mean of minimum three measurements
T3 construct: BRD4 (BD1: 42–168; BD2: 348–464); His tag (N); biotinylation (Avi-type acceptor, vector pQE80L-Navi) (N); made in house; host or cells: Escherichia coli
Text: as §1, §2

[2] = molecular target: BRD3–BD1, BRD4–BD1, and BRD2–BD1; experiment: SPR, stated jointly for the BD1 domains; format: binding, human; settings: range over BRD3–BD1, BRD4–BD1 and BRD2–BD1; BD immobilized, peptide flowed; equilibrium steady state affinity analysis; read-out: Affinities (KD) for the three BD1 domains, SPR
Text: as §1
Measurements were conducted on a T200 (Cytiva) and data analyzed using the Biacore Insight Evaluation Software. Experiments were performed at 4 °C in multicycle kinetics mode and fit using the equilibrium steady state affinity model (1:1 Langmuir binding isotherm). For experiments measuring the binding of the 2AcK peptide, biotinylated BET BDs were immobilized on a biotin CAP chip (Cytiva) with a target density of ∼1000 to 2000 RU and peptide was flowed over the chip. A buffer comprising 20 mM Mes (pH 6.5), 150 mM NaCl, 0.05% (v/v) Tween-20 was used as the running buffer. […]

BRD3–BD1 = molecular target: T4, BRD3–BD1 (Homo sapiens, UniProt Q15059); experiment: Isothermal titration calorimetry (ITC); settings: ITC 25 °C, BRD3–BD1 titrated into peptide; fit to binding isotherm
T4 construct: BRD3 (BD1: 25–147; BD2: 307–419); His tag (N); biotinylation (Avi-type acceptor, vector pQE80L-Navi) (N); made in house; host or cells: Escherichia coli
T4 sequence (Q15059 25-147): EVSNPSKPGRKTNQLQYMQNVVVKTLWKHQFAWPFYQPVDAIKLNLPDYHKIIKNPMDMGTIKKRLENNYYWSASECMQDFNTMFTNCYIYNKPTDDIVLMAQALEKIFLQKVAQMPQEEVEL
Text: as §1
The affinities and stoichiometry for the interaction of BRD3–BD1 with 2AcK and 2AcK.4E peptides were determined using a MicroCal PEAQ ITC (Malvern Instruments). Titrations of BRD3–BD1 (1 mM) into peptide (25–50 μM) were carried out at 25 °C using a 0.2 μl initial injection and 20 to 24 subsequence 1 to 3 μl injections. Data were analyzed using Malvern MicroCal PEAQ ITC Software, using a protein into buffer baseline correction and fitted with a one-site binding model.

[3] = Fig. 2A, one titration, fit to 1:1 binding model, BD immobilized, Mes pH 6.5, 4 °C
[4] = SPR 4 °C, biotinylated BD immobilized on biotin CAP chip, 20 mM Mes pH 6.5, 150 mM NaCl, 0.05% Tween-20, steady state 1:1 fit, geometric mean of minimum three measurements

Row | Substance | Solubility of the peptide (in words) [1] | KD on plot, typical SPR titration, BRD2-BD2 (BRD2–BD2; [3]) | KD (SPR) BRD2–BD2 (BRD2–BD2; [4]) | KD on plot, typical SPR titration, BRD3-BD2 (BRD3–BD2; [3]) | KD (SPR) BRD3–BD2 (BRD3–BD2; [4]) | KD (SPR) BRD4–BD2 (BRD4–BD2) | Kd [2] [nM] | N value (stoichiometry) from ITC fit (BRD3–BD1)
1 | ALLLAKLYHF [1AcK] | not soluble at concentrations high enough to allow measurements to be made |  |  |  |  |  |  | 
2 | Ac-AQRSLK(Ac)LLK(Ac)HLYH-NH2 (C-terminus assumed) [2AcK] | slightly more soluble | No binding | no measurable binding | No binding | no measurable binding | a small degree of binding observed | 1000 to 2000 | ~2.5
